{
  "source": "patent US20080057044A1",
  "about": "“Lactobacillus Plantarum with Body-Fat Reducing Activity and the Foods Containing Them” (priority 2004, published 2008)",
  "data": [
    {"test_system": "Lactobacillus plantarum Strain PL62", "experiment": "Antibiotic resistance (diameter of growth inhibition)", "assay_type": "cell-based", "settings": "not given", "from_the_text": "The stronger antibiotic resistance a probiotic has, the higher survivability within the intestines is. Thus, the stronger an antibiotic resistance is, the better it is. However, if an antibiotic resistance is transferred, resistance problems may be brought about. It was confirmed whether an antibiotic resistance was transferred to other bacteria or not.", "units": {"Diameter (mm) of growth inhibition": "mm"}, "values": [
      {"molecule": "CN[C@H](CC(C)C)C(=O)N[C@H]1C(=O)N[C@@H](CC(N)=O)C(=O)N[C@H]2C(=O)N[C@H]3C(=O)N[C@H](C(=O)N[C@H](C(=O)O)c4cc(O)cc(O)c4-c4cc3ccc4O)[C@H](O)c3ccc(c(Cl)c3)Oc3cc2cc(c3O[C@@H]2O[C@H](CO)[C@@H](O)[C@H](O)[C@H]2O[C@H]2C[C@](C)(N)[C@H](O)[C@H](C)O2)Oc2ccc(cc2Cl)[C@H]1O", "note": "[Vancomycin]", "Diameter (mm) of growth inhibition": 6},
      {"molecule": "CCN1CCN(C(=O)N[C@@H](C(=O)N[C@@H]2C(=O)N3C(C(=O)O)=C(CSc4nnnn4C)CS[C@H]23)c2ccc(O)cc2)C(=O)C1=O", "note": "[Cefoperazone]", "Diameter (mm) of growth inhibition": 22},
      {"molecule": "Cc1onc(-c2ccccc2)c1C(=O)N[C@@H]1C(=O)N2[C@@H]1SC(C)(C)[C@@H]2C(=O)O", "note": "[Oxacillin]", "Diameter (mm) of growth inhibition": 11},
      {"molecule": "O=C(N[C@H](CO)[C@H](O)c1ccc([N+](=O)[O-])cc1)C(Cl)Cl", "note": "[Chloramphenicol]", "Diameter (mm) of growth inhibition": 30},
      {"molecule": "CO[C@H]1/C=C/O[C@@]2(C)Oc3c(C)c(O)c4c(O)c(c(/C=N/N5CCN(C)CC5)c(O)c4c3C2=O)NC(=O)/C(C)=C\\C=C\\[C@H](C)[C@H](O)[C@@H](C)[C@@H](O)[C@@H](C)[C@H](OC(C)=O)[C@@H]1C", "note": "[Rifampin]", "Diameter (mm) of growth inhibition": 24},
      {"molecule": "CCC[C@@H]1C[C@@H](C(=O)N[C@@H]([C@H]2O[C@H](SC)[C@H](O)[C@@H](O)[C@H]2O)[C@H](C)Cl)N(C)C1", "note": "[Clindamycin]", "Diameter (mm) of growth inhibition": 20},
      {"molecule": "[H]/N=C(/N)N[C@H]1[C@H](O)[C@@H](O)[C@H](O[C@@H]2O[C@@H](C)[C@](O)(C=O)[C@H]2O[C@@H]2O[C@@H](CO)[C@H](O)[C@@H](O)[C@@H]2NC)[C@@H](N/C(N)=N\\[H])[C@@H]1O", "note": "[Streptomycin]", "Diameter (mm) of growth inhibition": 8},
      {"molecule": "Trimethpprime/sulfamethoxasole", "Diameter (mm) of growth inhibition": 28},
      {"molecule": "CCN1CCN(C(=O)N[C@@H](C(=O)N[C@@H]2C(=O)N3[C@@H]2SC(C)(C)[C@@H]3C(=O)O)c2ccccc2)C(=O)C1=O", "note": "[Piperacilin]", "Diameter (mm) of growth inhibition": 37},
      {"molecule": "CC[C@H]1OC(=O)[C@H](C)[C@@H](O[C@H]2C[C@@](C)(OC)[C@@H](O)[C@H](C)O2)[C@H](C)[C@@H](O[C@@H]2O[C@H](C)C[C@H](N(C)C)[C@H]2O)[C@](C)(O)C[C@@H](C)C(=O)[C@H](C)[C@@H](O)[C@]1(C)O", "note": "[Erythromycin]", "Diameter (mm) of growth inhibition": 32},
      {"molecule": "Gentamicin", "Diameter (mm) of growth inhibition": 12},
      {"molecule": "CC1(C)S[C@@H]2[C@H](NC(=O)C(C(=O)O)c3ccccc3)C(=O)N2[C@H]1C(=O)O", "note": "(some centres unmarked) [Carbenicillin]", "Diameter (mm) of growth inhibition": 29},
      {"molecule": "CC1(C)S[C@@H]2[C@H](NC(=O)[C@H](N)c3ccccc3)C(=O)N2[C@H]1C(=O)O", "note": "[Ampicillin]", "Diameter (mm) of growth inhibition": 34},
      {"molecule": "Penicillin", "Diameter (mm) of growth inhibition": 29},
      {"molecule": "CC(=O)OCC1=C(C(=O)O)N2C(=O)[C@@H](NC(=O)Cc3cccs3)[C@H]2SC1", "note": "[Cephalothin]", "Diameter (mm) of growth inhibition": 25},
      {"molecule": "CN(C)[C@@H]1C(O)=C(C(N)=O)C(=O)[C@@]2(O)C(O)=C3C(=O)c4c(O)cccc4[C@@](C)(O)[C@H]3C[C@@H]12", "note": "[Tetracycline]", "Diameter (mm) of growth inhibition": 24}
    ]},
    {"test_system": "overweight people", "experiment": "not given", "settings": "180 overweight people, one year; cited from earlier work", "values": [
      {"molecule": "conjugated linoleic acid [CLA]", "weight loss": "4-10%"}
    ]}
  ]
}
